A short description of data set [1]: AUC (0 to t) in human plasma at 60 mg, po by LC-MS/MS analysis. In kind it is ADME, organism-based.
In data set [2] the test system is Plasma. Description: AUC (0 to infinity) in human plasma at 60 mg, po by radio-HPLC chromatogram analysis. In kind it is ADME, organism-based. The arrangement: dose 60 mg, time infinity, route oral. The note with it: in vivo.
Data set [3] relates to Plasma. Description: Cmax in human plasma at 60 mg, po by radio-HPLC chromatogram analysis. In kind it is ADME, organism-based. The arrangement: dose 60 mg, route oral. The note with it: in vivo.
The nature of data set [4]: Drug metabolism in human assessed as metabolite excretion in feces at 60 mg, po after 168 hrs by radio-HPLC chromatogram analysis. In kind it is ADME, organism-based. The note with it: in vivo.
Data set [5] relates to Plasma. Description: AUC (0 to t) in human plasma at 60 mg, po by radio-HPLC chromatogram analysis. In kind it is ADME, organism-based. Conditions: in vivo.
The nature of data set [6]: AUC (0 to infinity) in human plasma at 60 mg, po by LC-MS/MS analysis. In kind it is ADME, organism-based. The arrangement: dose 60 mg, route oral, time infinity.
A short description of data set [7]: Tmax in human plasma at 60 mg, po by LC-MS/MS analysis. In kind it is ADME, organism-based.
The test system of data set [8] is Blood. As to the kind of experiment: Cmax in human whole blood at 60 mg, po by radio-HPLC chromatogram analysis. In kind it is ADME, organism-based. The arrangement: dose 60 mg, route oral. Conditions: in vivo.
A further data set deals with Homo sapiens. As to the kind of experiment: Toxicity in human assessed as sign of adverse effect at 60 mg, po. In kind it is organism-based. Conditions: in vivo.
Data set [9] deals with Blood. Description: AUC (0 to infinity) in human whole blood at 60 mg, po by radio-HPLC chromatogram analysis. The note with it: in vivo. In kind it is ADME, organism-based. The arrangement: dose 60 mg, time infinity, route oral.
Data set [10] deals with Blood. Description: AUC (0 to t) in human whole blood at 60 mg, po by radio-HPLC chromatogram analysis. Conditions: in vivo. Format: ADME, organism-based.
A short description of data set [11]: Cmax in human plasma at 60 mg, po by LC-MS/MS analysis. In kind it is ADME, organism-based. The arrangement: dose 60 mg, route oral.
The nature of another data set: clinical. The note with it: human, in vivo.
The nature of data set [12]: Terminal elimination half life in human plasma at 60 mg, po by LC-MS/MS analysis. Format: ADME, organism-based. Conditions: read-out: beta t1/2 (converted).
Data set [13] in a line: Retention time of the compound. In kind it is physicochemical.
The nature of data set [14]: Elimination half life in human. In kind it is ADME, organism-based. Conditions: in vivo, read-out: beta t1/2 (converted).
The subject of data set [15] is Plasma. Description: Terminal elimination half life in human plasma treated with 60 mg, po of [14C]edoxaban by LC-MS/MS analysis. Format: ADME, organism-based.
A short description of data set [16]: Drug excretion in feces of human treated with 60 mg, po of [14C]edoxaban after 168 hrs by radio-HPLC chromatogram analysis. In kind it is ADME, organism-based. Conditions: in vivo.
Data set [17] relates to Plasma. As to the kind of experiment: Cmax in human plasma treated with 60 mg, po of [14C]edoxaban by LC-MS/MS analysis. Format: ADME, organism-based. The arrangement: dose 60 mg, route oral. The note with it: in vivo.
Data set [18] in a line: Drug excretion in urine of human treated with 60 mg, po of [14C]edoxaban after 168 hrs by radio-HPLC chromatogram analysis. Format: ADME, organism-based. Conditions: in vivo.
For data set [19], the system named is Plasma. Description: AUC (0 to t) in human plasma treated with 60 mg, po of [14C]edoxaban by LC-MS/MS analysis. Format: ADME, organism-based. Conditions: in vivo.
Data set [20] deals with Plasma. Description: AUC (0 to infinity) in human plasma treated with 60 mg, po of [14C]edoxaban by LC-MS/MS analysis. Format: ADME, organism-based. The arrangement: dose 60 mg, time infinity, route oral. The note with it: in vivo.
For data set [21], the system named is Plasma. Description: Tmax in human plasma treated with 60 mg, po of [14C]edoxaban by LC-MS/MS analysis. In kind it is ADME, organism-based. The note with it: in vivo.

`CN1CCc2nc([14C](=O)N[C@@H]3C[C@@H](C(=O)N(C)C)CC[C@@H]3NC(=O)C(=O)Nc3ccc(Cl)cn3)sc2C1` registered an AUC(0-t) in [1] of 1580 ng·h/mL. Moreover, the results for the AUC in the data set on Plasma [2] and with Blood [9] were 1.947 ugequiv.h/ml and 1.673 ugequiv.h/ml, respectively. Further, the Cmax with Plasma [3] amounted to 0.349 ugequiv/ml; in the data set with Blood [8], 0.352 ugequiv/ml; in data set [11], 332 ng/mL. In addition, the Drug excretion in data set [4] was determined as 0.05%. Moreover, the AUCt in the data set on Plasma [5] amounted to 1.683 ugequiv.h/ml; in the data set on Blood [10] it was 1.269 ugequiv.h/ml. Moreover, the AUC(0-inf) in data set [6] is 1600 ng·h/mL. Also, the Tmax in data set [7] was found to be 0.5 h; in “clinical”, 1 h. For the same compound, the Activity entry with Homo sapiens is “Non-toxic”. For the same compound, the results for the half-life in [12] and in [14] were 7.4 h and 8 h, respectively. The Retention_time in [13] turned out to be 54.08 min.

On to `CN1CCc2nc(C(=O)N[C@@H]3C[C@@H](C(=O)N(C)C)CC[C@@H]3N)sc2C1` (stereo in doubt; M2), for which the Retention_time in data set [13] turned out to be 34.09 min.

Take `CN(C)C(=O)[C@H]1CC[C@H](NC(=O)C(=O)Nc2ccc(Cl)cn2)[C@H](NC(=O)c2nc3c(s2)C[N+](C)([C@@H]2O[C@H](C(=O)[O-])[C@@H](O)[C@H](O)[C@H]2O)CC3)C1` (stereo partly specified): the Retention_time in data set [13] turned out to be 38.9 min.

As to `CNC(=O)[C@H]1CC[C@H](NC(=O)C(=O)Nc2ccc(Cl)cn2)[C@H](NC(=O)c2nc3c(s2)CN(C)CC3)C1` (stereo in doubt; M8), in the data set on Plasma [15], the “beta t1/2” value amounted to 9 h. Besides, the Drug excretion in [16] was 0.34%; in [18] (BLD = below limit of detection), “BLD”. Also, the Cmax with Plasma [17] was found to be 0.63 ng/mL. The compound further came in with an AUCt in the data set on Plasma [19] of 3.5 ng·h/mL. In addition, the AUC with Plasma [20] amounted to 4.41 ng·h/mL. Further, the Tmax in the data set on Plasma [21] was determined as 1.8 h. The compound also gave a Retention_time in [13] of 49.97 min.

Turning to `CN1CCc2nc(C(=O)N[C@@H]3C[C@@H](C(=O)N(C)C)CC[C@@H]3NC(=O)C(=O)O)sc2C1`, the “beta t1/2” value with Plasma [15] amounted to 6.9 h. Besides, the Drug excretion entry in [16] (BLD = below limit of detection) is given as “BLD”; in data set [18] it was 1.85%. This compound also displayed a Cmax in the data set with Plasma [17] of 14.9 ng/mL. This compound had an AUCt in the data set on Plasma [19] of 94.7 ng·h/mL. This compound also showed an AUC with Plasma [20] of 95.8 ng·h/mL. The Tmax with Plasma [21] is 1.8 h. The Retention_time in data set [13] turned out to be 25.41 min.

Turning to `CN(C)C(=O)[C@H]1CC[C@H](NC(=O)C(=O)Nc2ccc(Cl)cn2)[C@H](NC(=O)c2nc3c(s2)CNCC3)C1`, in the data set with Plasma [15], the “beta t1/2” value was 9 h. Moreover, the Drug excretion in data set [16] is recorded as 1.66%; in data set [18], 0.45%. In the data set with Plasma [17], this compound displayed a Cmax of 6.99 ng/mL. Besides, in the data set on Plasma [19], the AUCt is 55.1 ng·h/mL. The same compound gave an AUC in the data set on Plasma [20] of 56.2 ng·h/mL. In addition, in the data set with Plasma [21], the Tmax stood at 1 h. This compound showed a Retention_time in data set [13] of 46.52 min.

With `CN(C)C(=O)[C@H]1CC[C@H](NC(=O)C(=O)Nc2ccc(Cl)cn2)[C@H](NC(=O)c2nc3c(s2)C[N+](C)([O-])CC3)C1` (stereo partly specified), in [13], the Retention_time was 41.45 min.

Take `CN1CCc2nc(C(=O)N[C@@H]3C[C@@H](C(=O)O)CC[C@@H]3NC(=O)C(=O)Nc3ccc(Cl)cn3)sc2C1`: the “beta t1/2” value in the data set on Plasma [15] amounted to 8.2 h. For the same compound, the Drug excretion in [16] is 1.93%; in [18], 1.56%. The compound also yielded a Cmax with Plasma [17] of 22.2 ng/mL. The AUCt in the data set with Plasma [19] stood at 145.5 ng·h/mL. In the data set on Plasma [20], this compound had an AUC of 147 ng·h/mL. Further, the Tmax in the data set with Plasma [21] is 1.8 h. The compound also displayed a Retention_time in [13] of 40.84 min.

The record behind these values is ChEMBL document CHEMBL3526010, “Pharmacokinetics, biotransformation, and mass balance of edoxaban, a selective, direct factor Xa inhibitor, in humans” (Drug Metab Dispos, 2012).
